Measurements from patent publication EP1799816B1, “NOVEL LACCASE ENZYME AND USE THEREOF” (AB Enzymes Oy, priority 2004, dated 2006).
Read-outs that look alike come from different tables or passages of the source.

Tests used:
[1] = target: T1, recombinant Thielavia arenaria TaLcc1 laccase (rTaLcc1) expressed in Trichoderma reesei, SEQ ID NO: 12 (Canariomyces arenarius, UniProt F6N9E7); assay type: biochemical
T1 sequence (F6N9E7 22-604): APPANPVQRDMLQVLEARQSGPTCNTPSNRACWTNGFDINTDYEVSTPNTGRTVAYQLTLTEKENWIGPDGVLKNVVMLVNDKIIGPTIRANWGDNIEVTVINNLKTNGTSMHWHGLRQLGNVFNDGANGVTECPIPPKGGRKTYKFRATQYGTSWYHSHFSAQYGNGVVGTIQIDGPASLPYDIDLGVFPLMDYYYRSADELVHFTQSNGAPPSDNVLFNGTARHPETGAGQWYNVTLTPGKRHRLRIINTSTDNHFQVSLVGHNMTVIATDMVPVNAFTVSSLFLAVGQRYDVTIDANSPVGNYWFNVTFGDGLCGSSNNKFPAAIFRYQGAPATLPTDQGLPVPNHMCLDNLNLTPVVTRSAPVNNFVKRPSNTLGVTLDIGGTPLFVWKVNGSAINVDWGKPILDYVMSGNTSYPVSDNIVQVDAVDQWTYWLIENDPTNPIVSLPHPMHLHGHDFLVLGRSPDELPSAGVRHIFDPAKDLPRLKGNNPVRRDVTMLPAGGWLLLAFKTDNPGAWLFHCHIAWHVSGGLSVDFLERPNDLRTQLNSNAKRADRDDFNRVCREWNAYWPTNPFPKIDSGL
Method: (§1) On syringaldazin and DMP 40 mM MES buffer, pH 6 and 25 mM succinate bluffer, All activity assays were carried out at 25°C. Kinetic parameters were estimated by a nonlinear regression curve fit. The values were compared to those of Melanocarpus albomyces MaL, laccase.

[2] = target: T2, Melanocarpus albomyces laccase MaL (Melanocarpus albomyces, UniProt Q70KY3); experiment: Kinetic parameters (Km, kcat, kcat/Km) on laccase substrates; assay type: biochemical; conditions: substrate ABTS; 25 mM succinate buffer, pH 4.5, 25°C; comparison enzyme
T2 sequence (Q70KY3 51-609): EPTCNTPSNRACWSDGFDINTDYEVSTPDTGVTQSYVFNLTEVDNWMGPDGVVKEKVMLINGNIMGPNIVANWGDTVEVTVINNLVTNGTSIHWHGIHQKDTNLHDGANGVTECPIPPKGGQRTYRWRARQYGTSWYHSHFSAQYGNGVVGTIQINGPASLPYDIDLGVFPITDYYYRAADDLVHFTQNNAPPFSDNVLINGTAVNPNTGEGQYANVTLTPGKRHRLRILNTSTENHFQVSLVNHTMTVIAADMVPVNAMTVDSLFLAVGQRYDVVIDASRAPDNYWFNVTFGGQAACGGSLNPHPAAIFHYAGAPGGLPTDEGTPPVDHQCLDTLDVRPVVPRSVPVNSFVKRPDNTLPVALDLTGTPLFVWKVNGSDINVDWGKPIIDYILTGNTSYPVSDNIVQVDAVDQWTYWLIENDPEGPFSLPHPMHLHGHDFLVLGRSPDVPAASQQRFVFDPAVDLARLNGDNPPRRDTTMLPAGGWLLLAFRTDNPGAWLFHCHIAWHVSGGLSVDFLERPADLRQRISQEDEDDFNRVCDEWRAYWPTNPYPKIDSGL
Method: as §1

CCn1c(=NN=c2sc3cc(S(=O)(=O)O)ccc3n2CC)sc2cc(S(=O)(=O)O)ccc21 [ABTS, 2,2'azinobis-3-ethylbenzthiazole-6-sulphonate]
kcat ([1]; substrate ABTS, 25 mM succinate buffer, pH 4.5, 25°C): 68.83 s⁻¹ | Km [2]: 270 µM | kcat [2]: 78.17 s⁻¹

COc1cc(C=NN=Cc2cc(OC)c(O)c(OC)c2)cc(OC)c1O [Syringaldazin, syringaldazine]
kcat ([1]; substrate Syringaldazin, 25°C, buffer unclear (40 mM MES buffer, pH 6 / 25 mM succinate buffer)): 32.33 s⁻¹
